The results in this text go back to patent publication US10206900B2, “Treatments for fibrotic diseases” (MOR RESEARCH APPLICATIONS LTD., priority 2013, dated 2019).

In one experiment the test system is aortic ring explants. Briefly: Aortic ring assay ex vivo. The note with it: aortic ring explants in Matrigel, 1 μM, 8 days. How it is done:
FIG. 15: TAK1 regulates the fibrotic switch in aortic injury ex vivo. aortic ring explants were seeded in Matrigel with or without 5z-7 (1 μM) for 8 days and then photo-documented. The photographs shown are representative from one of three independent experiments (N=9). As can been in the control aortic ring explants there is growth of sprouts due to the injury/fibrotic process.

Experiment [1] relates to RPE cells. Kind of experiment: Cell size / morphology (rhodamine-phalloidin staining) upon TGF-β1. It counts as cell-based. The settings on record: 5Z-7-oxozeaenol 1 μM or SB431542 10 μM prior to TGF-β1. How it is done:
FIG. 3A: RPE cells were plated on fibronectin-coated glass coverslips, serum-starved for 16 hours, pretreated with 5Z-7-oxozeaenol (1 μM) or SB431542 (10 μM), or DMSO for 1 hour, then treated with or without TGF-β1 for 2 days. Following treatment, the cells were stained with rhodamine-phalloidin (actin fibers-red) and DAPI (blue) and visualized by confocal microscopy. Scale bars: […]. FIG. 3B: Serum-starved RPE cells pretreated with 5Z-7-oxozeaenol (1 μM) or DMSO for 1 hour, and were exposed to TGF-β as in FIG. 3A. Total RNA was extracted at each time point and qPCR was performed. Transcription levels of CTGF were determined after 6 h, 16 h and 24 h. Bars represent the specific mRNA amount relative to GAPDH mRNA in the same samples. All experiments were performed in triplicates. A representative histogram from two independent experiments is shown. FIG. 3C: RPE cells were plated and treated as in FIG. 3A. Following treatment, the cells were immunostained with E-cadherin antibodies (green) and DAPI (blue). Representative photographs of two independent experiments are shown. In addition to the secretion of MMPs and increased migratory capacity, several morphological changes underlie EMT (Lamouille et al., I 2007, 178:437-451). […]

Another experiment concerns p38. Briefly: p38 phosphorylation by immuno-blot in W2b liver hepatocytes. Type of experiment: cell-based. The settings on record: 1 μM for 1 hour, TGF-β 2.5 ng/ml. How it is done:
FIG. 10: Inhibition of TAK1 abolishes the activation of TGF-β cascades in liver cells. TGF-β1 up-regulates-Smad 2/3 and p38 activation and E-cadherin expression via TAK1 activity in hepatic cells. W2B liver hepatocytes cells were treated with or without 5Z-7-oxozeaenol followed by TGF-β treatment and Smad2/3 and p38 phosphorylation patterns were examined by immuno-blots. W2b liver hepatocytes cells were treated with or without 5Z-7-oxozeaenol (1 μM) for 1 hour followed by TGF-β treatment (2.5 ng/ml) for the indicated times. Smad2/3 and p38 phosphorylation patterns were examined by immuno-blots as described above.

For another experiment, the system named is c57Black mice. Kind of experiment: DSS-induced colitis in mice, fibrotic markers. It counts as in vivo. The note with it: DSS 1.5% eight days, IP 180 ng per animal daily. How it is done: C57black mice were treated with dextran sodium sulfate (DSS)-S 1.5% diluted in water for eight days and with or without 5Z-7 (1 uM) was IP injected total 180 ng for each animal Daily. After eight days the mice underwent evaluation to detect abnormalities in the Colom structure. N=14 mice for each group, Student T-test was used to determine the p value. The chart in FIG. 13 compares known markers that are considered as the main morphological phenotype for colitis. […] C57black mice were treated with dextran sodium sulfate (DSS)-S 1.5% diluted in water for eight days and with or without 5Z-7 (1 uM) IP injected total 180 ng for each animal daily. After eight days the mice underwent evaluation to detect abnormalities in the colon structure. In mice treated with DSS all markers of fibrosis such as: granulation, Transparency, fibrin and blood vessels were elevated by the DSS.

A further experiment relates to Smad2/3. Briefly: Smad2/3 phosphorylation by immuno-blot in HT29 colon cells. Type of experiment: cell-based. The note with it: HT29 Human colon cells, TGF-β treatment, versus untreated cells. The protocol: FIG. 11. Inhibition of TAK1 abolishes the activation of TGF-β cascades in colon cells. TGF-β1 up-regulates-Smad 2/3 and p38 activation via TAK1 activity in colon cells. HT29 Human colon cells were treated with or without 5Z-7-oxozeaenol followed by TGF-β treatment. Smad2/3 and p38 phosphorylation patterns were examined by immuno-blots. HT29 Human colon cells were treated as in the previous examples with or without 5Z-7-oxozeaenol, followed by TGF-β treatment. Inhibition of TAK1 was assayed by observation of Smad2/3 and p38 phosphorylation patterns by immuno-blots.

The test system of experiment [2] is RPE cells. Kind of experiment: In vitro scratch wound healing assay upon TNFα stimulation. The settings on record: 1 μM for 1 hour before 20 ng/ml TNFα, day 1 and 2. It counts as cell-based. How it is done: FIG. 8A: Cell migration of RPE cells in in vitro scratch wound healing assay. RPE cells were treated with Mitomycin C for 3 hours. After the cells were treated with 1 μM 5Z-7 for 1 hour before adding 20 ng/ml TNFα and wounding on day 0. Photographs were taken at day 1 and 2, respectively, after the wound was made. FIG. 8B: Percentage of the gap size (*, P<0.05, t test); (**, P<0.01, t test). To further support the finding that TAK1 mediated EMT in RPE, we examined the migratory capacity of RPE cells, a well-known marker for EMT (Lee et al., J Cell Biol 2006, 172:973-981). Cell migration was tested by the scratch assay. The assay was performed on RPE cells pretreated or untreated with TAK1 inhibitor prior to stimulation with TGF-β1. […] At 24 hours, in the TGF-β1 treated culture, a major portion of the cells had already migrated into the wounded area, displaying almost complete wound closure at 48 hours.

For `COc1cc(O)c2c(c1)/C=C/C[C@H](O)[C@H](O)C(=O)/C=C\C[C@H](C)OC2=O` [5Z-7-oxozeaenol], the “fibrotic effect resultant from the injury process (sprout growth)” value with aortic ring explants is “abolish the fibrotic effect”. The “TGF-β1-induced increase in cell size (hypertrophic RPE cells)” value in the experiment on RPE cells [1] is reported as “minimal number of hypertrophic RPE cells”. In addition, the p38 activation result with p38 was “barely detectable”. Besides, the “fibrotic markers of colitis (granulation, Transparency, fibrin, blood vessels)” value with c57Black mice is “reduce the fibrotic markers”. Moreover, in the experiment on Smad2/3, the Smad2/3 phosphorylation result was “significantly inhibited”. Besides, the “migration rates of RPE cells treated with TNFα” value in the experiment with RPE cells [2] is listed as “inhibited the migration rates”.
